Assay results reported in patent publication US6534543B2, “Oxa acids and related compounds for treating skin conditions” (Avon Products, Inc., priority 1996, dated 2003).

Test system: stratum corneum desquamation
Assay: normalizing effect on stratum corneum desquamation
From the text: Oxa acids easily dissolve in water to concentrations of at least 20 to 30% by weight. […] Dicarboxylic acids of moderate to long chain length, which have straight, all-carbon backbones, are virtually insoluble in water and other aesthetically acceptable vehicles. This severely limits the choice of delivery vehicles for the dicarboxylic acids. The desquamatory activity of such dicarboxylic acids is also questionable.

Question: What does the source list for `O=C(O)CCCCCCCCCCC(=O)O` [dodecanedioic acid]?
Answer: normalizing effect on stratum corneum desquamation beyond that of vehicle alone (formulation containing 5% dodecanedioic acid): do not produce any normalizing effect; normalizing effect on stratum corneum desquamation beyond that of vehicle alone (formulation containing 10% dodecanedioic acid): do not produce any normalizing effect
